From patent US20260256659A1, “COMPLEX FOR SEALING DENTINAL TUBULE, REAGENT FOR TREATING DENTIN HYPERSENSITIVITY, AND USE THEREOF” (ANHUI MEDICAL UNIVERSITY, priority 2023, published 2026)

Test system: Streptococcus mutans
Experiment: In vitro antibacterial properties, turbidimetric method and plate coating method
Format: cell-based
Conditions: bacterial absorbance after 4 h incubation and bacterial number counting
Method: The anti-Streptococcus mutans performance of the prepared dentin sealing materials was evaluated by a turbidimetric method and a plate coating method.

[Cl-].[Cl-].[Sr+2] [Sr, strontium chloride]
ability to inhibit Streptococcus mutans: ability to inhibit Streptococcus mutans
